Results taken from ChEMBL document CHEMBL4507275, “Data for DCP probe BI-2545” (2021).
Activity calls are given as the source filed them. The calls are words filed in the database; no cut-off is given here.

Columns and labels:
[1] = target: Cannabinoid receptor 1 (Homo sapiens) (UniProt P21554); experiment: CB1/CENTR/H Cerep selectivity data (BI); conditions: Compound concentration 10.0 uM
[2] = target: Mitogen-activated protein kinase kinase kinase 7 (Homo sapiens) (UniProt O43318); conditions: Compound concentration 1000.0 nM
Chain of Mitogen-activated protein kinase kinase kinase 7 (Homo sapiens) (O43318 whole entry): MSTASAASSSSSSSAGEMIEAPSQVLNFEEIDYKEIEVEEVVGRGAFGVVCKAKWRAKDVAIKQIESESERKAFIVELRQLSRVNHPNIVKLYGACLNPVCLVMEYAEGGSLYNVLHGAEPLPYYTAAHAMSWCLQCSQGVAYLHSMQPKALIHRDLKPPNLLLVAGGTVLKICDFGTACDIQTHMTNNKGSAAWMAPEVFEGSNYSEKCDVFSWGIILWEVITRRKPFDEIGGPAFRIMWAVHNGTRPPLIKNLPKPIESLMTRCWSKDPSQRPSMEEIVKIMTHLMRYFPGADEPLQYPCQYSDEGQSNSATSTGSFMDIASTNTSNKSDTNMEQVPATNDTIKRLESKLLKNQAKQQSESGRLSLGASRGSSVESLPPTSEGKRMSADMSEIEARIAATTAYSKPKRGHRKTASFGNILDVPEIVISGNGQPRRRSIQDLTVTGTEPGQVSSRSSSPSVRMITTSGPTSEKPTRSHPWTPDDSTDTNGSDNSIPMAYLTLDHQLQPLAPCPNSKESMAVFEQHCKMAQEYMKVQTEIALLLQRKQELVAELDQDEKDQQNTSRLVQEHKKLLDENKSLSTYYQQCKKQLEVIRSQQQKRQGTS

hERG (KCNH2) = hERG (KCNH2) (Homo sapiens, UniProt Q12809); experiment: HERG_DOFETILIDE Cerep selectivity data (BI); set-up: mode of action inhibitor; conditions: probe [3H] Dofetilide, compound concentration 10 uM, read-out: % Ctrl
[3] = target: T1, 5-hydroxytryptamine receptor 3A (Homo sapiens) (UniProt P46098); experiment: 5HT3/H Cerep selectivity data (BI); conditions: Compound concentration 10.0 uM
T1 sequence (whole entry): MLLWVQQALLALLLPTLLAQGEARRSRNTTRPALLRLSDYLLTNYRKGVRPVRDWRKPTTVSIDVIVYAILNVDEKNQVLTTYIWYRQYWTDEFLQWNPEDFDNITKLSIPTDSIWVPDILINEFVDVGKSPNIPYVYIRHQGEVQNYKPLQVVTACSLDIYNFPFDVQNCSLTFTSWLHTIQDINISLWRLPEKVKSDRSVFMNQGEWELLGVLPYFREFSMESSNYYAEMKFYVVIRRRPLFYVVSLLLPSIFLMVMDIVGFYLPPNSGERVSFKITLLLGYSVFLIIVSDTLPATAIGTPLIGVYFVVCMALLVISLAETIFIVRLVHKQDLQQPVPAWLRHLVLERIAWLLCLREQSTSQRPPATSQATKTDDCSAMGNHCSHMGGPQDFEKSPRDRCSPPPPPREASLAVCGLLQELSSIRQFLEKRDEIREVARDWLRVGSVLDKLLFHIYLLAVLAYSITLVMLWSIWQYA

[4] = target: T2, Muscarinic acetylcholine receptor M2 (Homo sapiens) (UniProt P08172); experiment: M2/H Cerep selectivity data (BI); conditions: filed as antagonist, Compound concentration 10.0 uM
T2 sequence (whole entry): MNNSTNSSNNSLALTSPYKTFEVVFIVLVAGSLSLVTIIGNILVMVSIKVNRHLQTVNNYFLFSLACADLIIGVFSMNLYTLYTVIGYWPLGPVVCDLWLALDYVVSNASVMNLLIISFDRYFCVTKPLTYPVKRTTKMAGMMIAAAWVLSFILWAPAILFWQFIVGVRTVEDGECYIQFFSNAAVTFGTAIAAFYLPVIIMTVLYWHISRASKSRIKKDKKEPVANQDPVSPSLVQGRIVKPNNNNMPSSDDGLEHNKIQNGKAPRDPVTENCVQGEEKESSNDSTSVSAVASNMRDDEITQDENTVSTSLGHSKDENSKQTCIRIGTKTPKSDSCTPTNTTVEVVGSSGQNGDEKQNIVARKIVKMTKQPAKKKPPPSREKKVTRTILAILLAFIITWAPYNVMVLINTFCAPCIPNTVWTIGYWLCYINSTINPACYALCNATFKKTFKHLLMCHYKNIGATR

[5] = target: T3, 5-hydroxytryptamine receptor 1A (Homo sapiens) (UniProt P08908); experiment: 5HT1A/H Cerep selectivity data (BI); conditions: Compound concentration 10.0 uM
T3 sequence (whole entry): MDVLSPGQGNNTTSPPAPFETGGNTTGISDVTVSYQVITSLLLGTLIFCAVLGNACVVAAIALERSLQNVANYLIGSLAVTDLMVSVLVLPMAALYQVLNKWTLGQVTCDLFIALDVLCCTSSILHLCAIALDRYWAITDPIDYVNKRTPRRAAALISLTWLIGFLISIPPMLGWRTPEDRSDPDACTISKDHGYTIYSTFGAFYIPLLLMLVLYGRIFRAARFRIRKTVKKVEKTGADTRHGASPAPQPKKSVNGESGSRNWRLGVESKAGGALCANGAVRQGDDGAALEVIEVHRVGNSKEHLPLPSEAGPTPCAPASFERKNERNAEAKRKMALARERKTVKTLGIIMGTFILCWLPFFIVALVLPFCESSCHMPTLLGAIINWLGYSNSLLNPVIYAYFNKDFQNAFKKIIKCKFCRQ

[6] = target: L-type voltage-gated calcium channel (dihydropyridine site), Cav1.2 alpha-1C (Rattus norvegicus, UniProt P22002); experiment: CA+/DHPSI/R Cerep selectivity data (BI); set-up: mode of action inhibitor; conditions: rat brain, probe [3H](+)PN200-110, compound concentration 10 uM, read-out: % Ctrl
[7] = target: Sodium-dependent noradrenaline transporter (Homo sapiens) (UniProt P23975); experiment: NEUP/H Cerep selectivity data (BI); conditions: Compound concentration 10.0 uM
[8] = target: Mu-type opioid receptor (Homo sapiens) (UniProt P35372); experiment: MU/H Cerep selectivity data (BI); conditions: Compound concentration 10.0 uM
[9] = target: Prostaglandin G/H synthase 2 (Homo sapiens) (UniProt P35354); experiment: COX-2 Cerep selectivity data (BI); conditions: Compound concentration 10.0 uM
[10] = target: D(1A) dopamine receptor (Homo sapiens) (UniProt P21728); experiment: D1/H Cerep selectivity data (BI); conditions: filed as antagonist, Compound concentration 10.0 uM
[11] = target: Delta-type opioid receptor (Homo sapiens) (UniProt P41143); experiment: DELTA2/H Cerep selectivity data (BI); conditions: Compound concentration 10.0 uM
[12] = target: Sodium-dependent dopamine transporter (Homo sapiens) (UniProt Q01959); conditions: Compound concentration 10.0 uM
Chain of Sodium-dependent dopamine transporter (Homo sapiens) (Q01959 whole entry): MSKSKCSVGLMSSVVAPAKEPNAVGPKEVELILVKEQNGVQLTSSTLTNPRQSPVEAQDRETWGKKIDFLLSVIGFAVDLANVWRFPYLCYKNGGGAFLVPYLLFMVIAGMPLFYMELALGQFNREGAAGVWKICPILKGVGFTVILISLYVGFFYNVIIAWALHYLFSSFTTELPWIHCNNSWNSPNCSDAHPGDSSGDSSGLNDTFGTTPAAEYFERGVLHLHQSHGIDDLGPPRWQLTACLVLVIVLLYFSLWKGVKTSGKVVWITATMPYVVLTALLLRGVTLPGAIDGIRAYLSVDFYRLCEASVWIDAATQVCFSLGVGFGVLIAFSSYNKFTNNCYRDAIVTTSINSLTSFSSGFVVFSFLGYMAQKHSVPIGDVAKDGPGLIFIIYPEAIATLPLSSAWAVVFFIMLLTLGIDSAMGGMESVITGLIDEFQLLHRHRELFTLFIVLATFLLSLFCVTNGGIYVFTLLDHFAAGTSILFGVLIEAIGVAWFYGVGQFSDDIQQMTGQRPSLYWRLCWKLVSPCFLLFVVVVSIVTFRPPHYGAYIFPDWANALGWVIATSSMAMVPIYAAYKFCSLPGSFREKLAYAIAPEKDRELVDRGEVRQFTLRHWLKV

[13] = target: Sodium-dependent dopamine transporter (Homo sapiens) (UniProt Q01959); experiment: DATRANS/HUM Cerep selectivity data (BI); conditions: Compound concentration 10.0 uM
[14] = target: Angiotensin-converting enzyme (Homo sapiens) (UniProt P12821); experiment: ACE(HU_AMTCH400) Cerep selectivity data (BI); conditions: Compound concentration 10.0 uM
Chain of Angiotensin-converting enzyme (Homo sapiens) (P12821 whole entry): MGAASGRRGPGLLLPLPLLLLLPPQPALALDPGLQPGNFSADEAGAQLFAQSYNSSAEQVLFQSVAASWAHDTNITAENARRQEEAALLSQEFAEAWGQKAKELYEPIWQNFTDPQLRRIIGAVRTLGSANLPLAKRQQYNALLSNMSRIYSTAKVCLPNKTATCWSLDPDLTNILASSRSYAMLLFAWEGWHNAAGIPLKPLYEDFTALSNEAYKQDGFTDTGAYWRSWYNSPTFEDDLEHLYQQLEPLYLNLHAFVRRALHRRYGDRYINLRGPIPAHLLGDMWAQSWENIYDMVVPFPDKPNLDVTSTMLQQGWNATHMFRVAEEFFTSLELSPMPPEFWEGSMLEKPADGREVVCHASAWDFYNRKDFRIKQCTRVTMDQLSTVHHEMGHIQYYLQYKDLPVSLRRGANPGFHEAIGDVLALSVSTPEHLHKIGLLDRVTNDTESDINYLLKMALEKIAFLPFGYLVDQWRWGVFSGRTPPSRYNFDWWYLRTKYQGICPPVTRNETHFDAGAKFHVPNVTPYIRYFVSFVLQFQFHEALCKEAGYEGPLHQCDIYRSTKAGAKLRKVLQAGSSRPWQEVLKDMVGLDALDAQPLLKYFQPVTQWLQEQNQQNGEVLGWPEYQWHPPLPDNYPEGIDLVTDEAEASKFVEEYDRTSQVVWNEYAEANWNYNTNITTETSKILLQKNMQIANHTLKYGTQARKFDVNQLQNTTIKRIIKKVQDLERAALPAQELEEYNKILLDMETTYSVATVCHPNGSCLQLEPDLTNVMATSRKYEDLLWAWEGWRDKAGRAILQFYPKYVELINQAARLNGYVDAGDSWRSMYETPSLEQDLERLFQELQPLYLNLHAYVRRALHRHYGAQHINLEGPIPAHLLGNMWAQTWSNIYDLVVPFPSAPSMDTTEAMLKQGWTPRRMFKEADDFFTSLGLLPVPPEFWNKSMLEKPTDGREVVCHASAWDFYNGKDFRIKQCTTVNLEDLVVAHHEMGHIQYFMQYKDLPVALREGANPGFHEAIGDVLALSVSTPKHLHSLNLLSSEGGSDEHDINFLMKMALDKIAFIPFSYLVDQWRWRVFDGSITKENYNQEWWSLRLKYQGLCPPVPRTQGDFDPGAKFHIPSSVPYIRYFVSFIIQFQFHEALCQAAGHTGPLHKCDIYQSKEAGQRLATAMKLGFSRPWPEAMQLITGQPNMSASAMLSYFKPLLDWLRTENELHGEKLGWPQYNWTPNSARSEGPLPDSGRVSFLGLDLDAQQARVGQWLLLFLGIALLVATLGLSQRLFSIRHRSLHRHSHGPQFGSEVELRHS

[15] = target: Gamma-aminobutyric acid receptor subunit alpha-1 (Rattus norvegicus) (UniProt P62813); experiment: BZD/CENTR/R Cerep selectivity data (BI); conditions: Compound concentration 10.0 uM
[16] = target: Kappa-type opioid receptor (Rattus norvegicus) (UniProt P34975); experiment: KAPPA/R Cerep selectivity data (BI); conditions: Compound concentration 10.0 uM
Chain of Kappa-type opioid receptor (Rattus norvegicus) (P34975 whole entry): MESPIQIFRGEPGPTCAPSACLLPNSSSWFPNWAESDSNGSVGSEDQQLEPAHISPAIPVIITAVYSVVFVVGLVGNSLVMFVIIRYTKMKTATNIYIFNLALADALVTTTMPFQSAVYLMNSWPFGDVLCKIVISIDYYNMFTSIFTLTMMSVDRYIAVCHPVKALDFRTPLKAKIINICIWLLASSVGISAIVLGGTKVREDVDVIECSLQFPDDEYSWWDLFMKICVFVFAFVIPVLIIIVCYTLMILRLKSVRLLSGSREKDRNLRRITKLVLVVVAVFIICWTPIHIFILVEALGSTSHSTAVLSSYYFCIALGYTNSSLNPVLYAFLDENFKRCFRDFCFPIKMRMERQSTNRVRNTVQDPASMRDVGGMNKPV

[17] = target: Cannabinoid receptor 2 (Homo sapiens) (UniProt P34972); experiment: CB2/PERIPH/H Cerep selectivity data (BI); conditions: Compound concentration 10.0 uM
Chain of Cannabinoid receptor 2 (Homo sapiens) (P34972 whole entry): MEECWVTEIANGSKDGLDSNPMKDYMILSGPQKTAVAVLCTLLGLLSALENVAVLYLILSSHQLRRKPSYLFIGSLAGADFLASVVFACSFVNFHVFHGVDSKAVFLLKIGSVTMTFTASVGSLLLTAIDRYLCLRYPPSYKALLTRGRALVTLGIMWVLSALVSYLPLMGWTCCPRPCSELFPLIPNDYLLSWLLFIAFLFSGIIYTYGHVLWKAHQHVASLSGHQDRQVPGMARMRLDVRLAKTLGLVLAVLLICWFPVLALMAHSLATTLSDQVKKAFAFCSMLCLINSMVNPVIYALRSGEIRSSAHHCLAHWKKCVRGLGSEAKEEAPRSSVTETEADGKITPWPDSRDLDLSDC

[18] = target: Histamine H2 receptor (Homo sapiens) (UniProt P25021); experiment: H2/APT/HS Cerep selectivity data (BI); conditions: filed as antagonist, Compound concentration 10.0 uM
[19] = target: D(2) dopamine receptor (Homo sapiens) (UniProt P14416); conditions: Compound concentration 10.0 uM
[20] = target: Prostaglandin G/H synthase 1 (Homo sapiens) (UniProt P23219); experiment: COX-1 Cerep selectivity data (BI); conditions: Compound concentration 10.0 uM
Chain of Prostaglandin G/H synthase 1 (Homo sapiens) (P23219 whole entry): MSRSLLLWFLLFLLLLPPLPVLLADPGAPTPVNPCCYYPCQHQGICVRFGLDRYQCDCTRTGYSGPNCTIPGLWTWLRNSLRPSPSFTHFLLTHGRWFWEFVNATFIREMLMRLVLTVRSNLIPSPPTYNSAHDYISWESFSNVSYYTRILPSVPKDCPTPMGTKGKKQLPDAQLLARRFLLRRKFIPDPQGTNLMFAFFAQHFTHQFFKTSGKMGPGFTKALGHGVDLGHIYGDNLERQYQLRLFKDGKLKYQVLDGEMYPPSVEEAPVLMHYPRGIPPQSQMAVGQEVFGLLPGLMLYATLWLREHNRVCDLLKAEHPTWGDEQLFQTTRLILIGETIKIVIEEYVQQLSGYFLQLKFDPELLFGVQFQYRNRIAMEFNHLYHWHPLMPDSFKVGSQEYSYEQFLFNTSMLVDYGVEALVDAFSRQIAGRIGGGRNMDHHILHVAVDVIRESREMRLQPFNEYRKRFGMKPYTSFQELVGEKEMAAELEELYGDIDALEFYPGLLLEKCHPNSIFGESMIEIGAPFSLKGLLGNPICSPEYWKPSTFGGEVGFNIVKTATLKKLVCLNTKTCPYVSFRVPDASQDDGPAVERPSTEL

[21] = target: Androgen receptor (Homo sapiens) (UniProt P10275); experiment: ANDROGEN/H Cerep selectivity data (BI); conditions: Compound concentration 10.0 uM
[22] = target: Muscarinic acetylcholine receptor M3 (Homo sapiens) (UniProt P20309); experiment: M3/H Cerep selectivity data (BI); conditions: Compound concentration 10.0 uM
[23] = target: Cholecystokinin receptor type A (Homo sapiens) (UniProt P32238); experiment: CCKA/H Cerep selectivity data (BI); conditions: Compound concentration 10.0 uM
[24] = target: 5-hydroxytryptamine receptor 2A (Homo sapiens, UniProt P28223); experiment: 5HT2AH_AGON Cerep selectivity data (BI); conditions: filed as agonist, Compound concentration 10.0 uM
Chain of 5-hydroxytryptamine receptor 2A (P28223 whole entry): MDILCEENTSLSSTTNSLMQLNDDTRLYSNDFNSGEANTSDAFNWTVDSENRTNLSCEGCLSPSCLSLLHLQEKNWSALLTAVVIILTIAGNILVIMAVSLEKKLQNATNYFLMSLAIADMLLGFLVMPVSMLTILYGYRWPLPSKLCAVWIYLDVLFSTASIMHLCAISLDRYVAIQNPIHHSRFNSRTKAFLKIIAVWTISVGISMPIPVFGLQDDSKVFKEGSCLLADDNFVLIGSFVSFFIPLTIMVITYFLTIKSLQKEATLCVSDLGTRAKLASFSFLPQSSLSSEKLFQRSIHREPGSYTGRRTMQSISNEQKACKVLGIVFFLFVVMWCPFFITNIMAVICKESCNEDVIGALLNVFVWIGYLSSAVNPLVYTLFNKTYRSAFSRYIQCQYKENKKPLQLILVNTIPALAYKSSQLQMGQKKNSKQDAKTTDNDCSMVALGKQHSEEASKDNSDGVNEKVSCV

[25] = target: Beta-2 adrenergic receptor (Homo sapiens) (UniProt P07550); conditions: Compound concentration 10.0 uM
Autotaxin = Autotaxin (Homo sapiens, UniProt Q13822); experiment: Biochemical assay: measurement of LPA (human)

Chain of Cannabinoid receptor 1 (Homo sapiens) (P21554 whole entry): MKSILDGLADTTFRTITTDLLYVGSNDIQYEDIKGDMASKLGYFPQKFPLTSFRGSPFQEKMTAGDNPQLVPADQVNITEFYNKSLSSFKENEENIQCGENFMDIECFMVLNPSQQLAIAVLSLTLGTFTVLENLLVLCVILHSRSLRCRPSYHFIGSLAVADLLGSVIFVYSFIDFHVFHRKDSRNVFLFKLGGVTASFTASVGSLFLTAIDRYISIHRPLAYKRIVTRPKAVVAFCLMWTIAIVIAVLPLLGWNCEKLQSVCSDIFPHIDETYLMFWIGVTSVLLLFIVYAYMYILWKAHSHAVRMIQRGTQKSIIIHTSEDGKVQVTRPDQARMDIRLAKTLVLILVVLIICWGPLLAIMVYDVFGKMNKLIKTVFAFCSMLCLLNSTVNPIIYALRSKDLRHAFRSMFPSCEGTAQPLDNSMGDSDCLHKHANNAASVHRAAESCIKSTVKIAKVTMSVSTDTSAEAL

O=C(NC[C@@H]1[C@H]2CN(C(=O)OCc3cc(C(F)(F)F)cc(C(F)(F)F)c3)C[C@@H]12)c1ccc2[nH]nnc2c1 [BI 2545]
residual activity [1]: 95% | residual activity [2]: 94% | activity at 10 µM (hERG (KCNH2)): 71% (not active) | residual activity [3]: 94% | residual activity [4]: 100% | residual activity [5]: 83% | activity at 10 µM [6]: 20% (active) | residual activity [7]: 39% | residual activity [8]: 67% | residual activity [9]: 81% | residual activity [10]: 92% | residual activity [11]: 82% | inhibition [12]: -2.65% | residual activity [13]: 57% | residual activity [14]: 109% | residual activity [15]: 136% | residual activity [16]: 68% | residual activity [17]: 77% | residual activity [18]: 110% | inhibition [19]: 7.71% | residual activity [20]: 82% | residual activity [21]: 103% | residual activity [22]: 100% | residual activity [23]: 51% | residual activity [24]: 45%

Cc1nccc(COC(=O)N2C[C@@H]3[C@@H](CNC(=O)c4ccc5[nH]nnc5c4)[C@@H]3C2)n1 [BI 3017]
residual activity [2]: 75% | inhibition [25]: -9.93% | IC50 (Autotaxin): 8.9 µM (not active)
